Data taken from patent publication US20130011870A1, “Method For Assaying Diseases Characterized By Dyslipidemia” (priority 2010, published 2013).

What follows are compounds tested on serine palmitoyltransferase (SPT) in SPTLC3 overexpressing HEK293 cells (assay: In vitro SPT activity with various acyl-CoA substrates (Example 1, FIG. 3)). Settings: acyl-CoA 50 μM; activity with palmitoyl-CoA defined as 100%.
Assay type: biochemical
Description: FIG. 3 In vitro SPT activity with various acyl-CoA substrates (C12-CoA, C14-CoA, C16-CoA and C18:1-CoA) in control, SPTLC1, SPTLC2 and SPTLC3 overexpressing HEK293 cells. […] (For comparison the activity with palmitoyl-CoA is defined as 100%.)
All acyl-CoAs were used at the same concentration (50 μM).

Row | Compound | SPT activity with the acyl-CoA substrate in SPTLC3 overexpressing cells compared with control, SPTLC1 and SPTLC2 cells
1 | CCCCCCCC/C=C\CCCCCCCC(=O)SCCNC(=O)CCNC(=O)[C@H](O)C(C)(C)COP(=O)(O)OP(=O)(O)OC[C@H]1O[C@@H](n2cnc3c(N)ncnc32)[C@H](O)[C@@H]1OP(=O)(O)O [oleoyl-CoA] | comparable for all cell lines
2 | CCCCCCCCCCCCCCCCCC(=O)SCCNC(=O)CCNC(=O)[C@H](O)C(C)(C)COP(=O)(O)OP(=O)(O)OC[C@H]1O[C@@H](n2cnc3c(N)ncnc32)[C@H](O)[C@@H]1OP(=O)(O)O [stearoyl-CoA] | comparable for all cell lines
3 | CCCCCCCCCCCC(=O)SCCNC(=O)CCNC(=O)[C@H](O)C(C)(C)COP(=O)(O)OP(=O)(O)OC[C@H]1O[C@@H](n2cnc3c(N)ncnc32)[C@H](O)[C@@H]1OP(=O)(O)O [lauryl-CoA] | significantly higher activity
